Paper PMC6888825, “Regulation of vanillate and syringate catabolism by a MarR-type transcriptional regulator DesR in Sphingobium sp. SYK-6” (Scientific Reports, 2019)

Experiments:
[1] = molecular target: T1, DesR (SLG_12870) (Sphingobium sp. SYK-6, UniProt G2IQU0); test: EMSA, inhibition of DNA binding by purified DesR; conditions: effector (derepression); […] DesR, […] DIG-labelled desB, ligM or desR upstream probes, […] compound, pH […] °C
T1 construct: homodimer (42 kDa by SEC)
T1 sequence (G2IQU0 1-172): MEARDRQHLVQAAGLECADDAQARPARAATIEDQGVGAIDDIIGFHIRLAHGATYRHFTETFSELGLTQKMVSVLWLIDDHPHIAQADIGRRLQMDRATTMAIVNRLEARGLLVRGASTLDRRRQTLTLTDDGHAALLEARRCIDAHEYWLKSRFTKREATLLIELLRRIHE

[2] = molecular target: DesR, MarR-type transcriptional regulator (SLG_12870) of Sphingobium sp. SYK-6, His tag-fused (Sphingobium sp. SYK-6); test: SEC; purified DesR (ca. 400 µg) on Superdex 200 Increase 10/300GL, 10 mM KH2PO4-K2HPO4 buffer (pH 7.4) with 140 mM NaCl, 1.0 ml/min; mass estimated against gel-filtration calibration kits (HMW and LMW)
[3] = tested on: T2, DesR (His-DesR) (Sphingobium sp. SYK-6), ORF:abc5f351; test: EMSA; conditions: EMSA: 20 mM HEPES pH 7.6, 1 mM EDTA, 10 mM (NH4)2SO4, 1 mM DTT, 0.2% Tween 20, 30 mM KCl, 1 ug poly[d(I-C)], 500 pM probe, 20 C, 20 min
T2 sequence: T1 sequence (G2IQU0 1-172)

Row | Molecule | EMSA, inhibition of DNA binding by purified DesR [1] | further results
1 | COc1cc(C(=O)O)ccc1O [VA, vanillate] | In the presence of VA, shift bands of these three probes decreased in a concentration-dependent manner | –
2 | COc1cc(C(=O)O)cc(OC)c1O [SA, syringate] | decrease in the shift bands of the three probes was also observed in a concentration-dependent manner | –
3 | DesR, MarR-type transcriptional regulator (SLG_12870) of Sphingobium sp. SYK-6, His tag-fused (natural protein) | – | stoichiometry N [2]: 2
4 | GCCGTTCCCCTCTCAGGCGCTCGAGATCGACAAAGGTCCGCGCCTTGCGCCGGATCAAGGACAGAGCTTGGCCGTGGACGGCCCGGAGTGACCGGATTTTCCGGCCGGTTTCACGCACTGCCCATTCGAAAAAATTTCGTTTGTGTCACATACAGAAGTTCGGCAGTCTGCCGGCATTGCTCAGCACCGGGCGGACCCGGAAGCCGAACATGCAGGAGAGGTCATATGGCAAAGATCATCGGCGGTTT (double strand) [desBp1] | – | binding [3]: binds
